For test [1], the target named is Dual specificity protein kinase CLK3 (Homo sapiens, UniProt P49761). The experiment in a line: Selectivity interaction (Ambit KINOMEscan and KiNATiv profiling in Jurkat cells) EUB0000090b CLK3. It is filed as cell-based. The following applies: at 1 µM.
Test [2] deals with Mast/stem cell growth factor receptor Kit (Homo sapiens), P10721 [V559D,V654A]. The following applies: at 10 µM.
Test [3] addresses T1, Glycogen synthase kinase-3 alpha (Homo sapiens, UniProt P49840). The test is described as follows: Selectivity interaction (KinomeScan (DiscoverX)) EUB0000092b GSK3A. To be noted: at 10 µM.
In test [4] the target is Serine/threonine-protein kinase 16 (Homo sapiens, UniProt O75716). The experiment in a line: Selectivity interaction (KinomeScan (DiscoverX)) EUB0001049a STK16. The following applies: at 1 µM.
Test [5] deals with Phosphatidylinositol 4,5-bisphosphate 3-kinase catalytic subunit gamma isoform (Homo sapiens) (UniProt P48736). The experiment in a line: Selectivity interaction (KinomeScan (DiscoverX)) EUB0000655a PIK3CG. To be noted: at 10 µM.
For test [6], the target named is Lethal(3)malignant brain tumor-like protein 3 (Homo sapiens) (UniProt Q96JM7). The test is described as follows: Selectivity interaction (PWWP, WD40, and Tudor domain panel (DSLS measurements, literature)) EUB0000270b L3MBTL3.
In test [7] the target is Transcription initiation factor TFIID subunit 1 (Homo sapiens) (UniProt P21675). The experiment in a line: Selectivity interaction (Bromodomain panel (DSF asssay)) EUB0000270b TAF1.
The target of test [8] is Serine/threonine-protein kinase PRP4 homolog (Homo sapiens) (UniProt Q13523). The test is described as follows: Selectivity interaction (KinomeScan (DiscoverX)) EUB0000666a PRPF4B. The following applies: at 10 µM.
The target of test [9] is Protein kinase C beta type (Homo sapiens, UniProt P05771). The experiment in a line: Selectivity interaction (SelectScreen profiling (Invitrogen)) EUB0000607a PRKCB. The following applies: at 2 µM.
For test [10], the target named is T2, Activin receptor type-1 (Homo sapiens) (UniProt Q04771).
T2 sequence (whole entry): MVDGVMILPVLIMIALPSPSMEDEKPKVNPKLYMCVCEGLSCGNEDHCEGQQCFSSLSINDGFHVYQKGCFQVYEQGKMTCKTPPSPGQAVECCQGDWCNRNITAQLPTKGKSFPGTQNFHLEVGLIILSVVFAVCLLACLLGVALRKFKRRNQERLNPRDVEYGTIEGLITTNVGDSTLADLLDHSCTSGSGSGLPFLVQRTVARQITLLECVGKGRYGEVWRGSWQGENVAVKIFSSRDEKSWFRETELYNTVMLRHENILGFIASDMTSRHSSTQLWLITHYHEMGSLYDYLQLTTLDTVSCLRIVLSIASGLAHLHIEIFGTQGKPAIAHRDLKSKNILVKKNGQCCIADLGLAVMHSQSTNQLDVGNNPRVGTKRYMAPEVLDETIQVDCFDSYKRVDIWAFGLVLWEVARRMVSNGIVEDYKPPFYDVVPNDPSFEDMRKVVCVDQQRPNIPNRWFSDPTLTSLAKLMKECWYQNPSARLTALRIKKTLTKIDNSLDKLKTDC
The test is described as follows: Selectivity interaction (KinomeScan (DiscoverX)) EUB0000607a ACVR1. To be noted: at 10 µM.

Test [11] concerns the target Mitogen-activated protein kinase kinase kinase 1 (Homo sapiens, UniProt Q13233). The test is described as follows: Selectivity interaction (KinomeScan (DiscoverX)) EUB0000595a MAP3K1. To be noted: at 10 µM.
Test [12] has as its target Serine/threonine-protein kinase 38-like (Homo sapiens) (UniProt Q9Y2H1). The test is described as follows: Selectivity interaction (KinomeScan (DiscoverX)) EUB0000595a STK38L. To be noted: at 10 µM.
The target of test [13] is T1, Glycogen synthase kinase-3 alpha. The experiment in a line: Selectivity interaction (KinomeScan (DiscoverX)) EUB0001619a GSK3A. To be noted: at 1 µM.
Test [14] concerns the target DNA-dependent protein kinase catalytic subunit (Homo sapiens) (UniProt P78527). The test is described as follows: Selectivity interaction (ActivX KiNativ screen (ex vivo kinase selectivity in human PBMCs)) EUB0001619a PRKDC. It counts as cell-based. The following applies: PBMC, at 1 µM.
In test [15] the target is T3, NUAK family SNF1-like kinase 1 (Homo sapiens) (UniProt O60285).
T3 sequence (whole entry): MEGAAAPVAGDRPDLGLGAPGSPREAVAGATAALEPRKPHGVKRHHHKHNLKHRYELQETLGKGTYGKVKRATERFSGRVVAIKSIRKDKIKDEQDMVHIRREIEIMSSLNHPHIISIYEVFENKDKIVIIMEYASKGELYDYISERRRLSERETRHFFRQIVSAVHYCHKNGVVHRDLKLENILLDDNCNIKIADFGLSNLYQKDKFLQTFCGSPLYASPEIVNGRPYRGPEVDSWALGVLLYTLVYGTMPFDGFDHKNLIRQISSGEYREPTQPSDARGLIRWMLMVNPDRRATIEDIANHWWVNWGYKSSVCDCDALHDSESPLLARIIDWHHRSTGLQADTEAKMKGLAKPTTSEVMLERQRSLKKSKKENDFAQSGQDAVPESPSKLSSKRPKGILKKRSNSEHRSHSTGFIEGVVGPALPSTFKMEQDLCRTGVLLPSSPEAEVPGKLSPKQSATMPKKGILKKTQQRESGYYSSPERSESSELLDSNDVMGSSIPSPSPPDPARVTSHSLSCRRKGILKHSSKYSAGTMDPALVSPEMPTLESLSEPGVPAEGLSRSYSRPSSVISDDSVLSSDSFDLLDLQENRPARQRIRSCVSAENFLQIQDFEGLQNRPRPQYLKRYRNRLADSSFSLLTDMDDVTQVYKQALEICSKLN
The test is described as follows: Selectivity interaction (Kinase panel (literature)) EUB0001199aCl NUAK1. The following applies: at 1 µM.

Test [16] deals with Mitogen-activated protein kinase kinase kinase 11 (Homo sapiens) (UniProt Q16584). The test is described as follows: Selectivity interaction (Kinase panel (KiNativ target engagement assay in Jurkat cells)) EUB0001635a MAP3K11. It counts as cell-based. The following applies: Selectivity number of off-targets 0.0, Selectivity number of targets 233.0, Source Knowledge https://www.sciencedirect.com/science/article/pii/S2451945619300674?via%3Dihub, at 1 µM.

Molecules are shown by their SMILES.

T1 sequence (P49840 2-483 limits assumed): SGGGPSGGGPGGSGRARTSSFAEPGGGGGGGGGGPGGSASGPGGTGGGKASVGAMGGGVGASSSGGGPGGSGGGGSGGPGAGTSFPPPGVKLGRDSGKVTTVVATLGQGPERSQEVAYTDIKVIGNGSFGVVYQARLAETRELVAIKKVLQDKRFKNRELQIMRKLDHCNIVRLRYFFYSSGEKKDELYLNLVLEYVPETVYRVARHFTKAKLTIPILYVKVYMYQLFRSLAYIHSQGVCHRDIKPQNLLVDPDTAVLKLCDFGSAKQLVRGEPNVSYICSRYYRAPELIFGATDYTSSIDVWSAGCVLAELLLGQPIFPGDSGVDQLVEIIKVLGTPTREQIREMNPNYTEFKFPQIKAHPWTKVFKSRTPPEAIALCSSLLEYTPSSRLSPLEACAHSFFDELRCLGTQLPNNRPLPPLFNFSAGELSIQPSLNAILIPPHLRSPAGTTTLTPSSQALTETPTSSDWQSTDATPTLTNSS
Mitogen-activated protein kinase kinase kinase 1, sequence (Q13233 whole entry): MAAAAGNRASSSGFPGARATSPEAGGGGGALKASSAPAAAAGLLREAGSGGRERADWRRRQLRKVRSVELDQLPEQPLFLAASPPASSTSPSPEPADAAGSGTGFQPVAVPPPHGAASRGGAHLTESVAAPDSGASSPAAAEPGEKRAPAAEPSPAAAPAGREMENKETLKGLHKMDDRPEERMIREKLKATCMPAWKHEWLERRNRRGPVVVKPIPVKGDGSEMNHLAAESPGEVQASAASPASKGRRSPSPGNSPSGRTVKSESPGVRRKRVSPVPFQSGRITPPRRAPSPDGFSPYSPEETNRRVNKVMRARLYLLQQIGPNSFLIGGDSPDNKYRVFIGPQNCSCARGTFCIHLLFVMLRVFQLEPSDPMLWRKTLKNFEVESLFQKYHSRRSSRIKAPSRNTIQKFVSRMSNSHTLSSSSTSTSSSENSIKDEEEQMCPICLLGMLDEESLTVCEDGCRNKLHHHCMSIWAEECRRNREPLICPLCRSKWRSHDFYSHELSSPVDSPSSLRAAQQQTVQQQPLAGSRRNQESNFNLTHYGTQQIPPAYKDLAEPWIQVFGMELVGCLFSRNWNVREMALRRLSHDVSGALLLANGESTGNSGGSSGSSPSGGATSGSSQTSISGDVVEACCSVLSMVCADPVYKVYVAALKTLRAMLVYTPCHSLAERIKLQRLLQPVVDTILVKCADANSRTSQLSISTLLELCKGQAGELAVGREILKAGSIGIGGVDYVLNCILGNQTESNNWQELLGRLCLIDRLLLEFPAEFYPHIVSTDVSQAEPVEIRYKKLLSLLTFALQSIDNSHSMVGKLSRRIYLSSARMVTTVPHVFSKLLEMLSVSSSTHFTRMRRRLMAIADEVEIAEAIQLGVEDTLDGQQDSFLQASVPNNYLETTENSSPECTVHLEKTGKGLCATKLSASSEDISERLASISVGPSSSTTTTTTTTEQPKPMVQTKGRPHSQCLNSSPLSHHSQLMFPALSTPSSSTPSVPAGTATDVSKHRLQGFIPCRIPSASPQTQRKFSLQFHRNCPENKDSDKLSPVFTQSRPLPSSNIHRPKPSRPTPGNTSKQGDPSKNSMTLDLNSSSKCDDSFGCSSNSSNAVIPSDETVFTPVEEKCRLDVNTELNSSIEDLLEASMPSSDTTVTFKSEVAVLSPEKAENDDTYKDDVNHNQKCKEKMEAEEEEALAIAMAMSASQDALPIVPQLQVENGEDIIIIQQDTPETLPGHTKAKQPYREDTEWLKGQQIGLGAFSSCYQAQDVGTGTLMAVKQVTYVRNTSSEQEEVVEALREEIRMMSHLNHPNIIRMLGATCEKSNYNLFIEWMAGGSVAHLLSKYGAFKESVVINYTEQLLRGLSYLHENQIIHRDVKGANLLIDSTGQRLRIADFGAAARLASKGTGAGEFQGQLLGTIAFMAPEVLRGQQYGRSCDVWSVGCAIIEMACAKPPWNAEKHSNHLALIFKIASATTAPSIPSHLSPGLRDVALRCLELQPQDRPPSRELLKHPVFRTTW
Serine/threonine-protein kinase PRP4 homolog (Homo sapiens), sequence (Q13523 whole entry): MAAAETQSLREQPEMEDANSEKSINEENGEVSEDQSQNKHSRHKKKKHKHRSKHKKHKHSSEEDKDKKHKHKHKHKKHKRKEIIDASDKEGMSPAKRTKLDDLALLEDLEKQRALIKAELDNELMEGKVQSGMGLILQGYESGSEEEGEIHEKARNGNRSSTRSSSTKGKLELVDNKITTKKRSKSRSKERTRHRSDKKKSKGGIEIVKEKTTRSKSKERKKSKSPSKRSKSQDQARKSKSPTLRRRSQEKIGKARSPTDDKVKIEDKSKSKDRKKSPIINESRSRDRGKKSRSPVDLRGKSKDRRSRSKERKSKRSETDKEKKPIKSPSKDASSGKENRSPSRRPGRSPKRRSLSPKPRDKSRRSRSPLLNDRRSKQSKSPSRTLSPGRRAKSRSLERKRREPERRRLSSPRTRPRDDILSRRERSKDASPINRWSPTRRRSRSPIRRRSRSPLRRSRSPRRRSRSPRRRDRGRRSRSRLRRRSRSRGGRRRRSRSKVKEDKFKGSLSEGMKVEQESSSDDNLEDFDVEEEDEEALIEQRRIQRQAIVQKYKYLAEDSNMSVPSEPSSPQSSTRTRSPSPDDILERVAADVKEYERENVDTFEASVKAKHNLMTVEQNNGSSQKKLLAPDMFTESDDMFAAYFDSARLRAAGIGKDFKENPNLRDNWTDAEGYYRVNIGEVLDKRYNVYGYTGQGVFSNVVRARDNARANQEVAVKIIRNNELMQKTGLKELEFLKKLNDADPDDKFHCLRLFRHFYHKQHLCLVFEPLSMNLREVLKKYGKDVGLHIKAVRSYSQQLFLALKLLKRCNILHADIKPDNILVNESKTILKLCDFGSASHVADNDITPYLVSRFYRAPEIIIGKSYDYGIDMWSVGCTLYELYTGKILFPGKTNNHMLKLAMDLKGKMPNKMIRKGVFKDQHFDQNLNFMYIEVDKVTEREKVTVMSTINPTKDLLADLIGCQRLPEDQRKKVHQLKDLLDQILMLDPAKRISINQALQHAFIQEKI
Transcription initiation factor TFIID subunit 1 (Homo sapiens), sequence (P21675 whole entry): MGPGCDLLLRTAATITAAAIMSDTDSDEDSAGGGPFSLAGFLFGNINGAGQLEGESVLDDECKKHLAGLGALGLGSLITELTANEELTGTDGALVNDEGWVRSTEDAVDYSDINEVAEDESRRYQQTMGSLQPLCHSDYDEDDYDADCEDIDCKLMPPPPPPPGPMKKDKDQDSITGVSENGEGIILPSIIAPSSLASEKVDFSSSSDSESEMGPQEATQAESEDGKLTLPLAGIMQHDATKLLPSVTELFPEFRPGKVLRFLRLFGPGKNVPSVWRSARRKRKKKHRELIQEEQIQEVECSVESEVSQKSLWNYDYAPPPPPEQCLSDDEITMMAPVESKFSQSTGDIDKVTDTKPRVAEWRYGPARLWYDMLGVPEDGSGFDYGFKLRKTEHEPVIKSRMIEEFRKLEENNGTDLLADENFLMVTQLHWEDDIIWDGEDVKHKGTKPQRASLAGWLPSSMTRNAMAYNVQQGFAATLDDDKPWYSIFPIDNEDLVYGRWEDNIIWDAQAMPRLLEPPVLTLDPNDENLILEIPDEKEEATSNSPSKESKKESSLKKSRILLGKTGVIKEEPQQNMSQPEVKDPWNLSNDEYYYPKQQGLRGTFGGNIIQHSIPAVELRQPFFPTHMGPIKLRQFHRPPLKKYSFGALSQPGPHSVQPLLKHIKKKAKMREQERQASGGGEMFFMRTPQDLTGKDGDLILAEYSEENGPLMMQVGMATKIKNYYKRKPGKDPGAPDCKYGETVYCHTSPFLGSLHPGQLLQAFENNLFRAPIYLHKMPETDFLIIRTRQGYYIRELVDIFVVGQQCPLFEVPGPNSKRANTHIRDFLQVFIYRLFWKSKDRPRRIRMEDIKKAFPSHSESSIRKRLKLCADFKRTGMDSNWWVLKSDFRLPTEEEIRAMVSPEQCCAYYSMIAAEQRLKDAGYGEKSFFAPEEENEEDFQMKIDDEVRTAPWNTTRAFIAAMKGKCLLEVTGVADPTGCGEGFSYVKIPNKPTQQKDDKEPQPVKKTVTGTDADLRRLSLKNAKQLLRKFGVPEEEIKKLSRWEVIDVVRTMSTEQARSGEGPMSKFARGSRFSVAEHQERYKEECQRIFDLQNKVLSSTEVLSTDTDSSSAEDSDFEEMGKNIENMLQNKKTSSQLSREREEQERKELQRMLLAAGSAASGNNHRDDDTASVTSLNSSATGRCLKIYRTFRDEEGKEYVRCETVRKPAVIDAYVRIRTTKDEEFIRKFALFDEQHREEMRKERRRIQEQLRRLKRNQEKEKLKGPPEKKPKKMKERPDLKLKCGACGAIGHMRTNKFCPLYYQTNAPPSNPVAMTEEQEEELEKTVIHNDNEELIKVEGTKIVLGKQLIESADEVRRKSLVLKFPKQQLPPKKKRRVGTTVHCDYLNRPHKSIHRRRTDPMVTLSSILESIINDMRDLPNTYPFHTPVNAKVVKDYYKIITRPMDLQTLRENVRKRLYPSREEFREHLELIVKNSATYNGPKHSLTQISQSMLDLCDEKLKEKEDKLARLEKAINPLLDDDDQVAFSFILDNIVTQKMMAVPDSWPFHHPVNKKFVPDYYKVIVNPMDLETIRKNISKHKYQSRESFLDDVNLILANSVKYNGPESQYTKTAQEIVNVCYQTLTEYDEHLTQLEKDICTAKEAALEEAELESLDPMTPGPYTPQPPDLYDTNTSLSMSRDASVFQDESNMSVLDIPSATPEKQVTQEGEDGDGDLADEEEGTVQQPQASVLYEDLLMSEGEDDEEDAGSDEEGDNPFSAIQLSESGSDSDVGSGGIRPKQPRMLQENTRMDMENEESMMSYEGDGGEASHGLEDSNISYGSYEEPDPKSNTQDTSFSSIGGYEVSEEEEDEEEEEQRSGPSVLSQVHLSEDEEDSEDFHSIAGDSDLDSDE

In test [1], `CN(C)C/C=C/C(=O)Nc1ccc(C(=O)N2CCCC(Nc3ncc(Cl)c(-c4c[nH]c5ccccc45)n3)C2)cc1` (stereo unspecified) gave a % of control of 81%.
In test [2], `CCN(CC)CCCCNc1ncc2cc(-c3cc(OC)cc(OC)c3)c(NC(=O)NC(C)(C)C)nc2n1` came in with a % of control of 100%.
For `CCC(=O)N1CCN(c2ccc(-n3c(=O)ccc4cnc5ccc(-c6cnc7ccccc7c6)cc5c43)cc2C(F)(F)F)CC1`, the % of control in [3] was 93%.
Regarding `COc1cc(Nc2nc(C)cc(-c3cnn4nc(OC)ccc34)n2)cc(C(F)(F)F)c1`, in test [4], the % of control worked out at 81%.
For the molecule `CN(C)CCOc1ccc(-c2nc(-c3ccncc3)c(-c3ccc4c(c3)CC/C4=N\O)[nH]2)cc1`, the % of control in [5] worked out at 84%.
On to `Cc1cc(CN)cc(C)c1-c1ncn(C)c1-c1cncn1C`, for which, in test [6], the dTagg was determined as 0.2 K. Besides, the dTM in test [7] was -1.15 K.
In turn, `O=C(NOC[C@H](O)CO)c1ccc(F)c(F)c1Nc1ccc(I)cc1F` had a % of control in test [8] of 77%.
Consider `CNC(=O)Nc1ccc(-c2nc(N3CC4CCC(C3)O4)c3cnn(C4CCC5(CC4)OCCO5)c3n2)cc1`, for which the % of inhibition in [9] is 9%. The molecule further came in with a % of control in [10] of 90%.
Take `COCC(=O)NC/C=C/c1ccc2ncnc(Nc3ccc(Oc4ccc(C)nc4)c(C)c3)c2c1` [CP-724714]: the % of control in test [11] and in [12] was 100% in each case.
Regarding `N#Cc1cccc(-c2c[nH]c3ncnc(N4CCOCC4)c23)c1`, in test [13], the % of control worked out at 100%. In test [14], the % of inhibition was -2%.
Consider `CN1Cc2nccc(-c3cn(C)nc3-c3ccc(F)cc3)c2C1=O`, for which, in [15], the % of inhibition was -6%.
Turning to `C=CC(=O)Nc1ccc(C(=O)Nc2[nH]nc3c2CN(C(=O)N[C@H](CN(C)C)c2ccccc2)C3(C)C)cc1`, in test [16], the % of engagement was -1.9%.
